From publication PMC6704710, “Preclinical evaluation of 3D185, a novel potent inhibitor of FGFR1/2/3 and CSF-1R, in FGFR-dependent and macrophage-dominant cancer models” (Journal of Experimental & Clinical Cancer Research : CR, 2019)

Columns and labels:
Assay in all cases: Eurofins kinase panel
Format in all cases: biochemical
ALK(h) = molecular target: T1, ALK(h) (Homo sapiens, UniProt Q9UM73); settings: read-out: Inhibition rate (%)
T1 construct: purchased Eurofins (KinaseProfiler)

EphA1(h) = molecular target: T2, EphA1(h) (Homo sapiens, UniProt P21709); settings: read-out: Inhibition rate (%)
T2 construct: purchased Eurofins (KinaseProfiler)
T2 sequence (P21709 26-976): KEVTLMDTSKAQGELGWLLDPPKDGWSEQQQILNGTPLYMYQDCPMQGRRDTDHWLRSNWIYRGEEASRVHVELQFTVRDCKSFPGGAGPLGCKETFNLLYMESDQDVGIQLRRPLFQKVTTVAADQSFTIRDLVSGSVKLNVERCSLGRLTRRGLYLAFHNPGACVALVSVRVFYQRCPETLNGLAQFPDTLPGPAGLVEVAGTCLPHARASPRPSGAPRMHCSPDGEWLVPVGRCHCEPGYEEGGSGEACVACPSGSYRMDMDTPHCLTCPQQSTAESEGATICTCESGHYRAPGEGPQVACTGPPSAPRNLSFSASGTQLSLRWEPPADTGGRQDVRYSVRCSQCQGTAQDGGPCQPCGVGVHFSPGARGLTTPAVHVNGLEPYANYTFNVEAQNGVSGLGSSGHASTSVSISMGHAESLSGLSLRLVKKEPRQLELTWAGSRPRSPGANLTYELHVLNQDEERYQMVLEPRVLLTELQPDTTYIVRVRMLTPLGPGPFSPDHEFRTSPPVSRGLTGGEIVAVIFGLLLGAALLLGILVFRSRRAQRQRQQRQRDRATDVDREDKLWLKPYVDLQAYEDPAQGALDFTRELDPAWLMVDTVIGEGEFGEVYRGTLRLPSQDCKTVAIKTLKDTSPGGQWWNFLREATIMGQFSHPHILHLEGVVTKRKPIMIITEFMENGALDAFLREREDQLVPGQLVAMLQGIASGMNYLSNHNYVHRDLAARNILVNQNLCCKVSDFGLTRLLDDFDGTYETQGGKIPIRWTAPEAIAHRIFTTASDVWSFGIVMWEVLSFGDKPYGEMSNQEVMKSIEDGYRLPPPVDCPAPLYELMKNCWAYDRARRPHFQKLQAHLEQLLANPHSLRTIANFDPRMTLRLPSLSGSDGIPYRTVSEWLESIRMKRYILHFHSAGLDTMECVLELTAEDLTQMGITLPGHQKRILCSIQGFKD

Fms(h) = Fms(h) (Homo sapiens, UniProt P07333)
Chain of Fms(h) (P07333 20-972): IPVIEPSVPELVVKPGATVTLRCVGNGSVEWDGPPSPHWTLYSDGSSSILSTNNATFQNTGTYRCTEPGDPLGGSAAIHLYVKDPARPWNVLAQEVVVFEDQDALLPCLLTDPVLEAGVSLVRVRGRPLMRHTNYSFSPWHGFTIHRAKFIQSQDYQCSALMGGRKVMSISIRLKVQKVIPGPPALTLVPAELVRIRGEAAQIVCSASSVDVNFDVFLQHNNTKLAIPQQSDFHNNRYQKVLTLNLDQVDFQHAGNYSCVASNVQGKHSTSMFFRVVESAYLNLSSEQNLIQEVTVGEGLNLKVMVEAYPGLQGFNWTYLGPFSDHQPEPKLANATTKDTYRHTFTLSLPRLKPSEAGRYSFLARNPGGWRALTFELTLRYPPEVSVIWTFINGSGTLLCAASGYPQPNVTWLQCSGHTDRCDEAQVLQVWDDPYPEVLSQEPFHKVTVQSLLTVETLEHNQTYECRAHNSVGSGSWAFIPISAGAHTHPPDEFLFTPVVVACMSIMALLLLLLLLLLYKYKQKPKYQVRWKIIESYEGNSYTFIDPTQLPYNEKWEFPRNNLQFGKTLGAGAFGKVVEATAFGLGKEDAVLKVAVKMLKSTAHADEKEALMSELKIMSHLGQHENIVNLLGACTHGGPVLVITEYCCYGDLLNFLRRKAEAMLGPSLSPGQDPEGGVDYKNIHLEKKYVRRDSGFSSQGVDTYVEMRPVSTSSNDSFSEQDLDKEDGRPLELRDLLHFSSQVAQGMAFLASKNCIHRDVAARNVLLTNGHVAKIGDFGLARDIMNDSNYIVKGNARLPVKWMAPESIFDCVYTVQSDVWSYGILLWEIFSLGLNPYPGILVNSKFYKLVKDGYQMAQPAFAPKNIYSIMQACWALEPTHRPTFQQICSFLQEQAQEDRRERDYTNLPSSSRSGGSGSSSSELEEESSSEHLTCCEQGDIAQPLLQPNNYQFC

JAK3(h) = molecular target: T3, JAK3(h) (Homo sapiens, UniProt P52333); settings: read-out: Inhibition rate (%)
T3 construct: purchased Eurofins (KinaseProfiler)
T3 sequence (P52333 1-1124): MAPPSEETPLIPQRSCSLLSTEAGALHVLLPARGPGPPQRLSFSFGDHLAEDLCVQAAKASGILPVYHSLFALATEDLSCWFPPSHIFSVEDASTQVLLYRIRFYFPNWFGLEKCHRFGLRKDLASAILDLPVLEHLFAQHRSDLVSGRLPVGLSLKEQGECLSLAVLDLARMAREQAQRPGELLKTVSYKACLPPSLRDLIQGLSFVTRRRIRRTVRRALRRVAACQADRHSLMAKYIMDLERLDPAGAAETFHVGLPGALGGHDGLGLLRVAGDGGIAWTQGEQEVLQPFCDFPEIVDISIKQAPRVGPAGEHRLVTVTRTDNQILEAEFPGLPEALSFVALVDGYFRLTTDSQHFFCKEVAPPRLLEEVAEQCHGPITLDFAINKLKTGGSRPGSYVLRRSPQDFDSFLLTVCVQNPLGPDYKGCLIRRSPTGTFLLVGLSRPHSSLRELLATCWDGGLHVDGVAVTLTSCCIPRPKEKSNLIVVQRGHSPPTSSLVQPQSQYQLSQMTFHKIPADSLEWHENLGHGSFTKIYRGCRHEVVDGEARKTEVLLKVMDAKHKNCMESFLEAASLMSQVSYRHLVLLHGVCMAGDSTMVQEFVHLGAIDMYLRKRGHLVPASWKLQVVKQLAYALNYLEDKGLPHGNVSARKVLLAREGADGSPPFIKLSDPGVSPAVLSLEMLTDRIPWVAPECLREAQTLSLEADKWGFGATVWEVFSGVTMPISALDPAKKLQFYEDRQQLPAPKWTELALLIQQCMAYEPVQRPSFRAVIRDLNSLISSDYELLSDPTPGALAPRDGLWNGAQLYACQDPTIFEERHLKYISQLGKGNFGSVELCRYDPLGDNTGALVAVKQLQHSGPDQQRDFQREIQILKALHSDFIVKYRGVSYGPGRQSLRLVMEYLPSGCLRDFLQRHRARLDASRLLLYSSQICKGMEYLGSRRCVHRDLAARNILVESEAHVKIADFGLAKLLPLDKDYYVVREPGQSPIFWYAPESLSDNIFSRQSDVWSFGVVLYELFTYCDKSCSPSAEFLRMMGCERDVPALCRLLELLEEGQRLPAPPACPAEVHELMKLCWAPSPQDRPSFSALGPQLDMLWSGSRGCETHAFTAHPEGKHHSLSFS

Met(Y1248C)(h) = molecular target: T4, Met(Y1248C)(h) (Homo sapiens, UniProt P08581, Y1230C); settings: read-out: Inhibition rate (%)
T4 construct: purchased Eurofins (KinaseProfiler)
T4 sequence (P08581 956-1390 Y1230C limits assumed): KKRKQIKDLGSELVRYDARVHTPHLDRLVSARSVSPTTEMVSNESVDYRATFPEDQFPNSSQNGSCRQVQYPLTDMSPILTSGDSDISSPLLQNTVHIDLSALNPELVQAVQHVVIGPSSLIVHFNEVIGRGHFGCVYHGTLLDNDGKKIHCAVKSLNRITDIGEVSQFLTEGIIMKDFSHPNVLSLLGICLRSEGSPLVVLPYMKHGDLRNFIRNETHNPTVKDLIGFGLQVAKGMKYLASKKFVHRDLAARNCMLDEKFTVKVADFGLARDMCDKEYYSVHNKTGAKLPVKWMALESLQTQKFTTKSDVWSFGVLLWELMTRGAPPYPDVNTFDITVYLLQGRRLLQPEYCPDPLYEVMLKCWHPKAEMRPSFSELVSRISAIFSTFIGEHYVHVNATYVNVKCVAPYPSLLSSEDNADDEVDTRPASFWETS

PKCβI(h) = molecular target: T5, PKCβI(h) (Homo sapiens, UniProt P05771); settings: read-out: Inhibition rate (%)
T5 construct: purchased Eurofins (KinaseProfiler)
T5 sequence (P05771 whole entry): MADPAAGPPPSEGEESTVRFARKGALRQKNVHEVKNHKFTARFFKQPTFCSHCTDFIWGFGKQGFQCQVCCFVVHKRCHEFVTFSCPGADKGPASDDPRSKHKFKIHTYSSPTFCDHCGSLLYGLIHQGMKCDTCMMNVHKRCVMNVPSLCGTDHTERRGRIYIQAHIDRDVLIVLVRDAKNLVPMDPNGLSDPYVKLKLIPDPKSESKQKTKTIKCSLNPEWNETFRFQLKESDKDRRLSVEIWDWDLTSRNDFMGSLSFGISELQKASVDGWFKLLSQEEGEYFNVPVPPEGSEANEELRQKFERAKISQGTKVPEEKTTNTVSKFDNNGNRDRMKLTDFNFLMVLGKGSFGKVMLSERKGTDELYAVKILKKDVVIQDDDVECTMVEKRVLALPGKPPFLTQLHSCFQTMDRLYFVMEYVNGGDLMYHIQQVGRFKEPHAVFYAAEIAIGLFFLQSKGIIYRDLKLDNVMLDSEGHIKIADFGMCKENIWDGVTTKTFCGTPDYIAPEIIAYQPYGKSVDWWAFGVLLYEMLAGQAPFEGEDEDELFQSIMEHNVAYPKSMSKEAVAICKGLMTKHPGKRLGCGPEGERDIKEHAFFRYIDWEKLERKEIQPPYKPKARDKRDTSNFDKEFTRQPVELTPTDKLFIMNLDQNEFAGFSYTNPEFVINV

Src(T341M)(h) = molecular target: T6, Src(T341M)(h) (Homo sapiens, UniProt P12931, T341M); settings: read-out: Inhibition rate (%)
T6 construct: purchased Eurofins (KinaseProfiler)
T6 sequence (P12931 whole entry T341M): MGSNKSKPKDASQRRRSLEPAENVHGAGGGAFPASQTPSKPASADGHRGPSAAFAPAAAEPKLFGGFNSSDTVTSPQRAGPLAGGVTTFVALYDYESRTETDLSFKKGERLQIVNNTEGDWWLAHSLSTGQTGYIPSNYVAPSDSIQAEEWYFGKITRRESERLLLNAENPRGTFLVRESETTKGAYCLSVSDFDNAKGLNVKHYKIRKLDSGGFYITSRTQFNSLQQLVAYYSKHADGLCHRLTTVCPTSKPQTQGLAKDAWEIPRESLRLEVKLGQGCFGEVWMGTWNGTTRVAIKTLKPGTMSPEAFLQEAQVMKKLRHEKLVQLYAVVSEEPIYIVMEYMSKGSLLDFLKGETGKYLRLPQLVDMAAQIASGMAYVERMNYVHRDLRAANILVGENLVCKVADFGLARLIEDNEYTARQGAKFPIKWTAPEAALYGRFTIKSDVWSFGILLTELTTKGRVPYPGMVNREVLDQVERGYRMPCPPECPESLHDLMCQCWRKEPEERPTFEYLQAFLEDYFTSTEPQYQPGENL

ZAK(h) = molecular target: T7, ZAK(h) (Homo sapiens, UniProt Q9NYL2); settings: read-out: Inhibition rate (%)
T7 construct: purchased Eurofins (KinaseProfiler)
T7 sequence (Q9NYL2 whole entry): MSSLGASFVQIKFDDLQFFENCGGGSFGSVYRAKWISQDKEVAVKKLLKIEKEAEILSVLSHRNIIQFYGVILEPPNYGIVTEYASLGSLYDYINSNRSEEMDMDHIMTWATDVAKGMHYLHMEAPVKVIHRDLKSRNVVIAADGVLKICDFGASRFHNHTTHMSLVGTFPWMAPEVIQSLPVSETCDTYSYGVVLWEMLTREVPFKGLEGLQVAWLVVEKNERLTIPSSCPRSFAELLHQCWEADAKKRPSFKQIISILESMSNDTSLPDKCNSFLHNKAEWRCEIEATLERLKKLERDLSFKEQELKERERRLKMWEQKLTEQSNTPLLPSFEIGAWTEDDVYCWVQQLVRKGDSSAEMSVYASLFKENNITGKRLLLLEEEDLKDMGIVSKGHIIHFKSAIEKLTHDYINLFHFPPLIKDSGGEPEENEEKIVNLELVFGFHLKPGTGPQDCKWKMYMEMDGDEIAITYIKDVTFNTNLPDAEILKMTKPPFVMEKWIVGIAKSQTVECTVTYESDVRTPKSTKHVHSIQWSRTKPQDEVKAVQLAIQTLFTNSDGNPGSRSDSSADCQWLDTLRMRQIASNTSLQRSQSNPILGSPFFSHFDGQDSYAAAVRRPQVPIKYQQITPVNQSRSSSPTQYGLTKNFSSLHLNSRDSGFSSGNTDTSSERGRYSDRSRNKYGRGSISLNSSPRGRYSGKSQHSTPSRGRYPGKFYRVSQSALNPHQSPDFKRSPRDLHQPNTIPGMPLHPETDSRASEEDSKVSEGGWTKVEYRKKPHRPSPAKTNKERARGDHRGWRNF

T1 sequence (Q9UM73 19-1620): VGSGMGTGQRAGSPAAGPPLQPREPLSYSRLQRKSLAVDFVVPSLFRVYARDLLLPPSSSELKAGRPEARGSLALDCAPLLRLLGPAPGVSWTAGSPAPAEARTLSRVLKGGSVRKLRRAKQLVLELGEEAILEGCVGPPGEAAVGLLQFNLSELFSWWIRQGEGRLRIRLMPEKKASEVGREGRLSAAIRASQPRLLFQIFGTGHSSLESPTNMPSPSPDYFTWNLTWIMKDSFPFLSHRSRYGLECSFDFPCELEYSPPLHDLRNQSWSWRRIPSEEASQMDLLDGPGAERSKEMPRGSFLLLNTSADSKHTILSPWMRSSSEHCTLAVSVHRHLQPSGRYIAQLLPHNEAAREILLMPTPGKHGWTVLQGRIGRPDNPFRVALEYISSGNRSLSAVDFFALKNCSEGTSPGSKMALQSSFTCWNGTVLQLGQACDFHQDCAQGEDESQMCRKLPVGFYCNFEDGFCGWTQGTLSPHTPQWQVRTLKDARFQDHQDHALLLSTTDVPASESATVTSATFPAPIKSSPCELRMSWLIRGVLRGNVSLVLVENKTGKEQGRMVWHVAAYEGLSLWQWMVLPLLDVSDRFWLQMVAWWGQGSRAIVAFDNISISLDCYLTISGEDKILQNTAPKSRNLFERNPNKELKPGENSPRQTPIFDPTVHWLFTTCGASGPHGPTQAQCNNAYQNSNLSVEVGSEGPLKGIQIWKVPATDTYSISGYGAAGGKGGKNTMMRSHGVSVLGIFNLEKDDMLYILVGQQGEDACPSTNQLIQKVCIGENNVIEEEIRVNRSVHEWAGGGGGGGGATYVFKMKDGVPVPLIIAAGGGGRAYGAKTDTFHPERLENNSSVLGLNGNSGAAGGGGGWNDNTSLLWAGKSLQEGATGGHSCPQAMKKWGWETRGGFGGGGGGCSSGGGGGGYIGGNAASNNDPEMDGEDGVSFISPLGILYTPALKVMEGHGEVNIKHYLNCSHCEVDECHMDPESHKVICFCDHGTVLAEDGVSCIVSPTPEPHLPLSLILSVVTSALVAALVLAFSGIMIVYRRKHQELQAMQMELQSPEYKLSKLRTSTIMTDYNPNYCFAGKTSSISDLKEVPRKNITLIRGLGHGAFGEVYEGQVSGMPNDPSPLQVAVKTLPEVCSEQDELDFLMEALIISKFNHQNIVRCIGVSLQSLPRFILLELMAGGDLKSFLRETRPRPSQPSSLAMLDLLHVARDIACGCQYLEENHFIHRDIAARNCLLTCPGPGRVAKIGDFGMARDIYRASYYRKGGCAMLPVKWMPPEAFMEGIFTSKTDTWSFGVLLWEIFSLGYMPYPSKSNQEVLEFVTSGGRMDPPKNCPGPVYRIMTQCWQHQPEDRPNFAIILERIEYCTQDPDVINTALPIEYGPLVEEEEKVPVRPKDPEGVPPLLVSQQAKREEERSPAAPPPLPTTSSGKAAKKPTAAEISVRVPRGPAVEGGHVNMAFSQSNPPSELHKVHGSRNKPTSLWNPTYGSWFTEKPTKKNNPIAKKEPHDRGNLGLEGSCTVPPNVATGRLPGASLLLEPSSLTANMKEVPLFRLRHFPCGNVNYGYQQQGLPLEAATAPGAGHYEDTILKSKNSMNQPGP

COc1cc(OC)c(Cl)c(-c2ccc3c(NC(=O)c4ccc(N5CCNC(C)(C)C5)cc4)n[nH]c3n2)c1Cl [3D185]
inhibition at 0.01 µM (ALK(h); 10 nM): -1%
inhibition at 0.1 µM (ALK(h); 100 nM): 35%
inhibition at 1 µM (ALK(h); 1000 nM): 82%
inhibition at 0.01 µM (EphA1(h); 10 nM): 0%
inhibition at 0.1 µM (EphA1(h); 100 nM): -14%
inhibition at 1 µM (EphA1(h); 1000 nM): -6%
IC50 (Fms(h); CSF-1R, estimated from 372-kinase panel): < 10 nM
inhibition at 0.01 µM (Fms(h); read-out: Inhibition rate (%)): 75%
inhibition at 0.1 µM (Fms(h); read-out: Inhibition rate (%)): 93%
inhibition at 1 µM (Fms(h); read-out: Inhibition rate (%)): 96%
inhibition at 0.01 µM (JAK3(h); 10 nM): -11%
inhibition at 0.1 µM (JAK3(h); 100 nM): 0%
inhibition at 1 µM (JAK3(h); 1000 nM): 10%
inhibition at 0.01 µM (Met(Y1248C)(h); 10 nM): -9%
inhibition at 0.1 µM (Met(Y1248C)(h); 100 nM): -2%
inhibition at 1 µM (Met(Y1248C)(h); 1000 nM): 5%
inhibition at 0.01 µM (PKCβI(h); 10 nM): -7%
inhibition at 0.1 µM (PKCβI(h); 100 nM): -3%
inhibition at 1 µM (PKCβI(h); 1000 nM): -1%
inhibition at 0.01 µM (Src(T341M)(h); 10 nM): 8%
inhibition at 0.1 µM (Src(T341M)(h); 100 nM): 33%
inhibition at 1 µM (Src(T341M)(h); 1000 nM): 88%
inhibition at 0.01 µM (ZAK(h); 10 nM): 1%
inhibition at 0.1 µM (ZAK(h); 100 nM): -2%
inhibition at 1 µM (ZAK(h); 1000 nM): 8%
